Source: patent US6720346B2, “Thiazole benzamide derivatives and pharmaceutical compositions for inhibiting cell proliferation” (Agouron Pharmaceuticals, Inc., priority 2001, dated 2004)

Tests used:
CDK2/cyclin A = molecular target: T1, CDK2/cyclin A (Homo sapiens, UniProt P24941); experiment: Inhibition of CDK2/cyclin A retinoblastoma kinase activity (Ki; % inhibition); assay type: biochemical; details: for Ki: apparent Ki, CDK2/cyclin A, Rb substrate
T1 construct: made in house; host or cells: CDK2: insect cells (baculovirus); cyclin A: E. coli
Experimental: (§1) Cyclin-dependent kinase activity was measured by quantifying the enzyme-catalyzed, time-dependent incorporation of radioactive phosphate from [^32P]ATP or [^33P]ATP into a protein substrate. Unless noted otherwise, assays were performed in 96-well plates in a total volume of 50 μL, in the presence of 10 mM HEPES (N-[2-hydroxyethyl]piperazine-N′-[2-ethanesulfonic acid]) (pH 7.4), 10 mM MgCl2, 25 μM adenosine triphosphate (ATP), 1 mg/mL ovalbumin, 5 μg/mL leupeptin, 1 mM dithiothreitol, 10 mM β-glycerophosphate, 0.1 mM sodium vanadate, 1 mM sodium fluoride, 2.5 mM ethylene glycol-bis(β-aminoethyl ether)-N,N,N′N′-tetraacetic acid (EGTA), 2% (v/v) dimethylsulfoxide, and 0.03-0.4 μCi [^32/33P]ATP per reaction. Reactions were initiated with enzyme, incubated at 30° C., and terminated after 20 minutes by the addition of ethylenediaminetetraacetic acid (EDTA) to 250 mM. The phosphorylated substrate was then captured on a nitrocellulose or phosphocellulose membrane using a 96-well filtration manifold, and unincorporated radioactivity was removed by repeated washing with 0.85% phosphoric acid. Radioactivity was quantified by exposing the dried membranes to a phosphorimager.
(§2) Compounds from combinatorial libraries were screened from 96-well plates for % inhibition of CDK activity at 30 nM theoretical compound concentration. Inhibition was measured relative to control wells that contained all reaction components including 2% (v/v) DMSO but no compound, after subtraction of background radioactivity measured in the absence of enzyme. Apparent Ki values of discrete compounds were measured by assaying enzyme activity in the presence of different inhibitor compound concentrations and subtracting the background radioactivity measured in the absence of enzyme. The kinetic parameters (kcat, Km for ATP) were measured for each enzyme under the usual assay conditions by determining the dependence of initial rates on ATP concentration. Inhibition data were fit to an equation for competitive inhibition using Kaleidagraph (Synergy Software), or were fit to an equation for competitive tight-binding inhibition using the software KineTic (BioKin, Ltd.).
CDK2 was purified using published methodology (Rosenblatt et al., “Purification and Crystallization of Human Cyclin-dependent Kinase 2,” J. Mol. Biol., 230, 1993, pp. 1317-1319) from insect cells that had been infected with a baculovirus expression vector. […] A complex of CDK2 and proteolyzed cyclin A was prepared and purified by gel filtration. The substrate for this assay was the same Rb substrate fragment used for the CDK4 assays, and the methodology of the CDK2/delta cyclin A and the CDK4/delta cyclin D3 assays was essentially the same, except that CDK2 was present at 10 nM or 19 nM. The duration of the assay was 60 or 75 minutes, during which the time-dependence of product formation was linear and initial rate conditions were met.

human CDK4/cyclin D3 = molecular target: T2, human CDK4/cyclin D3 (Homo sapiens, UniProt P11802); experiment: Inhibition of CDK4/cyclin D retinoblastoma kinase activity (Ki; % inhibition); assay type: biochemical; details: for Ki: apparent Ki, CDK4/cyclin D3, Rb substrate
T2 construct: made in house; host or cells: insect cells co-infected with baculovirus vectors
T2 sequence (P11802 whole entry): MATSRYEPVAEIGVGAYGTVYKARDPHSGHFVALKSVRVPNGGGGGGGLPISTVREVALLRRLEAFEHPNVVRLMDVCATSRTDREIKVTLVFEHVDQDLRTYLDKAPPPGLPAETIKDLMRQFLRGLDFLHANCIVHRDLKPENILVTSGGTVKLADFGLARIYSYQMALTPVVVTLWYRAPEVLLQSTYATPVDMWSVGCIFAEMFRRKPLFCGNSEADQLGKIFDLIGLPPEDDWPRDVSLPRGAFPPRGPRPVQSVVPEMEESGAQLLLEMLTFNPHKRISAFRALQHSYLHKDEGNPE
T2 sequence (P30281 1-264 partner limits assumed): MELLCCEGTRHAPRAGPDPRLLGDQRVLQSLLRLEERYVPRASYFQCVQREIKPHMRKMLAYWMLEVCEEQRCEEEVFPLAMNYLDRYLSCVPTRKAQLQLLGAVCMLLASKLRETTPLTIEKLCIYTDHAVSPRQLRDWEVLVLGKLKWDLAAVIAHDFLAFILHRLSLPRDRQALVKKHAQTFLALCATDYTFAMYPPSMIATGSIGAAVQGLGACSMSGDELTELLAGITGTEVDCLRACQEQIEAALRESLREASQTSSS
Experimental: as §1, §2
A complex of human CDK4 and genetically truncated (1-264) cyclin D3 was purified using traditional biochemical chromatographic techniques from insect cells that had been co-infected with the corresponding baculovirus expression vectors (see e.g., Meijer and Kim, “Chemical Inhibitors of Cyclin-Dependent Kinases,” Methods in Enzymol., 283 (1997), pp. 113-128.). The enzyme complex (5 nM) was assayed with 0.3-0.5 μg of purified recombinant retinoblastoma protein fragment (Rb) as a substrate. The engineered Rb fragment (residues 386-928 of the native retinoblastoma protein; 62.3 kDa) contains the majority of the phosphorylation sites found in the native 106-kDa protein, as well as a tag of six histidine residues for ease of purification. Phosphorylated Rb substrate was captured by microfiltration on a nitrocellulose membrane and quantified using a phosphorimager as described above. For measurement of tight-binding inhibitors, the assay duration was extended to 60 minutes, during which the time-dependence of product formation was linear and initial rate conditions were met.

HCT-116 cell line = experiment: Inhibition of cell growth, MTT tetrazolium salt assay; assay type: cell-based; details: for IC50: Homo sapiens, HCT-116, 120 h, MTT, three to five days
Experimental: Inhibition of cell growth was measured using the tetrazolium salt assay, which is based on the ability of viable cells to reduce 3-(4,5-dimethylthiazol-2-yl)-2,5-[2H]-diphenyltetrazolium bromide (MTT) to formazan (Mossman, Journal of Immunological Methods, 65, (1983), pp. 55-58). The water-insoluble purple formazan product was then detected spectrophotometrically. The HCT-116 cell line was used as a representative cancer cell line and grown in 96-well plates. Cells were plated in McCoy's 5A Medium at a volume of 135 μl/well. Plates were incubated for four hours before addition of inhibitor compounds. Different concentrations of inhibitor compounds were added in 0.5% (v/v) dimethylsulfoxide (15 μL/well), and cells were incubated at 37° C. (5% CO2) for three to five days. At the end of the incubation, MTT was added to a final concentration of 0.2 mg/mL, and cells were incubated for 4 hours more at 37° C. After centrifugation of the plates and removal of medium, the absorbance of the formazan (solubilized in dimethylsulfoxide) was measured at 540 nm. The concentration of inhibitor compound causing 50% (IC50) or 90% ([…]) inhibition of growth was determined from the linear portion of a semi-log plot of inhibitor concentration versus percent inhibition. All results were compared to control cells treated only with 0.5% (v/v) dimethylsulfoxide.

[1] = HCT-116 cells, 0.25 μM compound

Row | SMILES | CDK2 % Inhibition at 0.03 μM (CDK2/cyclin A; at 0.03 μM) [%] | CDK4 % Inhibition at 0.03 μM (human CDK4/cyclin D3; at 0.03 μM) [%] | CDK2 % Inhibition at 0.03 μM (CDK2/cyclin A; 0.03 μM compound) [%] | CDK4 % Inhibition at 0.03 μM (human CDK4/cyclin D3; 0.03 μM compound) [%] | HCT-116 % Inhibition at 0.1 μM (HCT-116 cell line; HCT-116, at 0.1 μM) [%] | HCT-116 % Inhibition at 0.25 μM (HCT-116 cell line; HCT-116, at 0.25 μM) [%] | HCT-116 % Inhibition at 0.1 μM (HCT-116 cell line; HCT-116 cells, 0.1 μM compound) [%] | HCT-116 % Inhibition at 0.25 μM (HCT-116 cell line; [1]) [%] | other results
1 | COCCNC(=O)c1ccc(Nc2nc(N)c(C(=O)c3c(F)cccc3F)s2)cc1 [Example G164] | 13 | 19 | – | – | 0 | 59 | – | – | –
2 | Nc1nc(Nc2ccc(C(=O)NCc3cccnc3)cc2)sc1C(=O)c1c(F)cccc1F [Example G188] | 29 | 39 | – | – | 17 | 51 | – | – | –
3 | CC(CNC(=O)c1ccc(Nc2nc(N)c(C(=O)c3c(F)cccc3F)s2)cc1)N(C)C (centres unmarked) [Example G92] | −7 | 10 | – | – | 85 | 98 | – | – | –
4 | CC(O)c1ccc(NC(=O)c2ccc(Nc3nc(N)c(C(=O)c4c(F)cccc4F)s3)cc2)cc1 (centres unmarked) [Example G94] | 10 | 4 | – | – | 38 | 80 | – | – | –
5 | CCOC(=O)N1CCC(NC(=O)c2ccc(Nc3nc(N)c(C(=O)c4c(F)cccc4F)s3)cc2)CC1 [Example G231] | – | – | 15 | 30 | – | – | 6 | 55 | –
6 | CCCCNC(=O)c1ccc(Nc2nc(N)c(C(=O)c3c(F)cccc3F)s2)cc1 [Example G186] | 7 | 30 | – | – | 14 | 51 | – | – | –
7 | CN1C[C@H](O)C[C@H]1CNC(=O)c1ccc(Nc2nc(N)c(C(=O)c3c(F)cccc3F)s2)cc1 [Example A54, 4-{4-Amino-5-(2,6-difluoro-benzoyl)-thiazol-2-ylamino]-N-(4R-hydroxy-1-methyl-pyrrolidin-2S-yl-methyl)-benzamide] | – | – | – | – | – | – | – | – | Ki (CDK2/cyclin A): 52 nM; Ki (human CDK4/cyclin D3): 9 nM; IC50 (HCT-116 cell line): 600 nM
8 | COc1ccc(NC(=O)c2ccc(Nc3nc(N)c(C(=O)c4c(F)cccc4F)s3)cc2)cc1O [Example G14] | 9 | 26 | – | – | – | 50 | – | – | –
9 | CCC(NC(=O)c1ccc(Nc2nc(N)c(C(=O)c3c(F)cccc3F)s2)cc1)c1ccccc1 (centres unmarked) [Example G151] | 16 | 7 | – | – | 27 | 94 | – | – | –
10 | Nc1nc(Nc2ccc(C(=O)NCCNc3ccccc3)c(O)c2)sc1C(=O)c1c(F)cccc1F [Example D1, 4-[4-Amino-5-(2,6-difluoro-benzoyl)-thiazol-2-ylamino]-2-hydroxy-N-(2-phenylamino-ethyl)-benzamide] | – | – | – | – | – | – | – | – | Ki (CDK2/cyclin A): 9.4 nM; Ki (human CDK4/cyclin D3): 17 nM; IC50 (HCT-116 cell line): 1000 nM
11 | Nc1nc(Nc2ccc(C(=O)NC(CO)c3ccccc3)cc2)sc1C(=O)c1c(F)cccc1F (centres unmarked) [Example G155] | 32 | 38 | – | – | 0 | – | – | – | HCT-116 % Inhibition at 0.25 μM (HCT-116 cell line; HCT-116, at 0.25 μM, 0.25 µM): 67%
12 | CCOC(=O)/C=C/c1ccc(NC(=O)c2ccc(Nc3nc(N)c(C(=O)c4c(F)cccc4F)s3)cc2)cc1 [Example G114] | −3 | 11 | – | – | 0 | 48 | – | – | –
13 | CCN(CC)CCCNC(=O)c1ccc(Nc2nc(N)c(C(=O)c3c(F)cccc3F)s2)cc1 [Example G127] | 10 | 29 | – | – | 0 | 61 | – | – | –
14 | NC(=O)c1cccc(NC(=O)c2ccc(Nc3nc(N)c(C(=O)c4c(F)cccc4F)s3)cc2)c1 [Example G6] | −1 | 10 | – | – | – | 47 | – | – | –
15 | Nc1nc(Nc2ccc(C(=O)NC(CO)c3ccccc3)cc2)sc1C(=O)c1c(F)cccc1F (centres unmarked) [Example G160] | 24 | 6 | – | – | 0 | – | – | – | HCT-116 % Inhibition at 0.25 μM (HCT-116 cell line; HCT-116, at 0.25 μM, 0.25 µM): 87%

More lines, main results first:

Row | CDK2 % Inhibition at 0.03 μM (CDK2/cyclin A; at 0.03 μM) [%] | CDK4 % Inhibition at 0.03 μM (human CDK4/cyclin D3; at 0.03 μM) [%] | CDK2 % Inhibition at 0.03 μM (CDK2/cyclin A; 0.03 μM compound) [%] | CDK4 % Inhibition at 0.03 μM (human CDK4/cyclin D3; 0.03 μM compound) [%] | SMILES | HCT-116 % Inhibition at 0.1 μM (HCT-116 cell line; HCT-116, at 0.1 μM) [%] | HCT-116 % Inhibition at 0.25 μM (HCT-116 cell line; HCT-116, at 0.25 μM) [%] | HCT-116 % Inhibition at 0.1 μM (HCT-116 cell line; HCT-116 cells, 0.1 μM compound) [%] | HCT-116 % Inhibition at 0.25 μM (HCT-116 cell line; [1]) [%] | other results
16 | – | – | −16 | 5 | CCCN(C(=O)c1ccc(Nc2nc(N)c(C(=O)c3c(F)cccc3F)s2)cc1)C(C)CC (centres unmarked) [Example G356] | – | – | 27 | 50 | –
17 | – | – | 6 | 2 | Nc1nc(Nc2ccc(C(=O)NCc3ccccc3C(F)(F)F)cc2)sc1C(=O)c1c(F)cccc1F [Example G269] | – | – | 19 | 65 | –
18 | – | – | −6 | 9 | Nc1nc(Nc2ccc(C(=O)Nc3cccc(F)c3)cc2)sc1C(=O)c1c(F)cccc1F [Example G289] | – | – | 7 | 62 | –
19 | – | – | −14 | 2 | Nc1nc(Nc2ccc(C(=O)N3CCC(CO)CC3)cc2)sc1C(=O)c1c(F)cccc1F [Example G390] | – | – | 10 | 40 | –
20 | – | – | −23 | −14 | CC(C)(C)C1CCC(NC(=O)c2ccc(Nc3nc(N)c(C(=O)c4c(F)cccc4F)s3)cc2)CC1 (centres unmarked) [Example G267] | – | – | 24 | 44 | –
21 | – | – | −4 | 5 | Nc1nc(Nc2ccc(C(=O)NCCCCCO)cc2)sc1C(=O)c1c(F)cccc1F [Example G274] | – | – | 15 | 47 | –
22 | – | – | 36 | 34 | Cc1ccc([C@H](C)NC(=O)c2ccc(Nc3nc(N)c(C(=O)c4c(F)cccc4F)s3)cc2)cc1 [Example G245] | – | – | 18 | 55 | –
23 | – | – | 28 | 26 | Nc1nc(Nc2ccc(C(=O)NCc3cccc(Cl)c3)cc2)sc1C(=O)c1c(F)cccc1F [Example G324] | – | – | 5 | 60 | –
24 | – | – | 1 | 8 | Nc1nc(Nc2ccc(C(=O)NCCSCCO)cc2)sc1C(=O)c1c(F)cccc1F [Example G366] | – | – | 26 | 55 | –
